Each structure is given as a SMILES string. pIC50, pKi: −log10 of the molar value. Activity calls are given as the source filed them. No cut-off for these calls is given here.

Data set [1] is described as follows: in vivo. The following applies: Sprague-Dawley, rat, iv, 1 mg/kg.
The target of another data set is T1, Substance-K receptor (Homo sapiens, UniProt P21452).
T1 sequence (P21452 whole entry): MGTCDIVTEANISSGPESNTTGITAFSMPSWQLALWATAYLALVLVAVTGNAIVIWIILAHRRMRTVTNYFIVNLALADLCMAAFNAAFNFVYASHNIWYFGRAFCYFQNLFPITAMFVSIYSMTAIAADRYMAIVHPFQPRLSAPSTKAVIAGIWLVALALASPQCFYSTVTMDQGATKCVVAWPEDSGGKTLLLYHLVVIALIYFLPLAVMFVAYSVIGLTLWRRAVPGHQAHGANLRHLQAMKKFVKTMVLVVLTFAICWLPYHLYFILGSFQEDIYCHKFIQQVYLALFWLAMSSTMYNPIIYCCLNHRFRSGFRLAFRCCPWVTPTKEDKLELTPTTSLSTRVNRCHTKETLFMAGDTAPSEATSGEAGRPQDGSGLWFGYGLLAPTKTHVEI
The data set can be described thus: Displacement of [125I]-neurokinin A from human NK2R after 90 mins by scintillation counting analysis.

Data set [2] has as its target T2, Neuromedin-K receptor (Homo sapiens, UniProt P29371).
T2 sequence (P29371 whole entry): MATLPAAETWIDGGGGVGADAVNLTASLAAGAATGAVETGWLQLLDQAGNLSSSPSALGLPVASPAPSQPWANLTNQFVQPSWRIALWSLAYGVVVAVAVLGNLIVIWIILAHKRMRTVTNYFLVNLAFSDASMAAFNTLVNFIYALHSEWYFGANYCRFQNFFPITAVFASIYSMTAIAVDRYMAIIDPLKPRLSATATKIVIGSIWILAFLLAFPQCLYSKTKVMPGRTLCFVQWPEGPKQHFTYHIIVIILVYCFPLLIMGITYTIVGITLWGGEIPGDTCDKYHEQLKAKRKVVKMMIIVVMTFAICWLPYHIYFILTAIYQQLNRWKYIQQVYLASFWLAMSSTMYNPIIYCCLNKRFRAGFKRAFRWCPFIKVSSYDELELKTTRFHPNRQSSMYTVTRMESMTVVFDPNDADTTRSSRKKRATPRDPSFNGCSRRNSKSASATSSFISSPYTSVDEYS

Data set [3] concerns Rattus norvegicus. As to the kind of experiment: In vivo inhibition of NK3R in castrated Sprague-Dawley rat assessed as decrease in serum luteinizing hormone level at 10 mg/kg, iv by radioimmunoassay relative to control. It is filed as functional.
Another data set deals with Substance-P receptor (Homo sapiens, UniProt P25103).
Chain of Substance-P receptor (P25103 whole entry): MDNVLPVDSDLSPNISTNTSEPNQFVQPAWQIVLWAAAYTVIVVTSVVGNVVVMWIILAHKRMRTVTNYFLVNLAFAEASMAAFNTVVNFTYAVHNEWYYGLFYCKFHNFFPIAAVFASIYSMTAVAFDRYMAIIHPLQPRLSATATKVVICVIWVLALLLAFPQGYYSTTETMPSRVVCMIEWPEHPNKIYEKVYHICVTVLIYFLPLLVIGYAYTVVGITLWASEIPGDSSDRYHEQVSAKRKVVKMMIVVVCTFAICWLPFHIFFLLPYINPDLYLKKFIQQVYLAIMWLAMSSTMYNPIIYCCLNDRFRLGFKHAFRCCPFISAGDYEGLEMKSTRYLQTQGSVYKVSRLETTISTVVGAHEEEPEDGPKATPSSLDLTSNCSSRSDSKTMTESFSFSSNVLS
Data set [4] has as its target T2, Neuromedin-K receptor. The data set can be described thus: biochemical.
Description: Displacement of [3H]-SB222200 from recombinant human NK3R expressed in CHO cell membranes after 90 mins by scintillation counting analysis
A short description of data set [5]: in vivo. The following applies: Sprague-Dawley, rat, po, 3 mg/kg.
Data set [6] relates to Cynomolgus monkey. The data set can be described thus: Unbound AUC in castrated cynomolgus monkey at 10 mg/kg, iv by LC-MS/MS analysis. The format is ADME, organism-based, Macaca fascicularis. Further details: dose 10 mg/kg, route intravenous. The following applies: in vivo.
The subject of data set [7] is Cynomolgus monkey. The data set can be described thus: Unbound Cmax in castrated cynomolgus monkey at 5 mg/kg, po by LC-MS/MS analysis. Further details: dose 5 mg/kg, route oral. The format is ADME, organism-based, Macaca fascicularis. Conditions: in vivo.
The nature of data set [8]: Apparent permeability across basolateral to apical side in human Caco2 cells in presence of 0.1% bovine serum albumin. The following applies: Caco-2. For orientation: Caco-2 cells form a polarised layer with tight junctions and transporters.
Data set [9] relates to Rattus norvegicus. As to the kind of experiment: Drug uptake in Sprague-Dawley rat at 30 mg/kg, po bid administered for 5 days. Conditions: in vivo, 120 h. The format is ADME, organism-based. Further details: dose 30 mg/kg, route oral.
Data set [10] relates to Cynomolgus monkey. As to the kind of experiment: In vivo inhibition of NK3R in castrated cynomolgus monkey assessed as decrease in plasma luteinizing hormone level at 20 mg/kg, po measured at 90 to 300 mins. The format is functional, organism-based. Also on record: dose 20 mg/kg. Conditions: Macaca fascicularis.
In data set [11] the test system is Cynomolgus monkey. As to the kind of experiment: Unbound AUC in castrated cynomolgus monkey at 5 mg/kg, po by LC-MS/MS analysis. Also on record: dose 5 mg/kg, route oral. Conditions: in vivo. The format is ADME, organism-based, Macaca fascicularis.
A short description of data set [12]: Total systemic clearance in castrated cynomolgus monkey at 10 mg/kg, iv by LC-MS/MS analysis. It is filed as ADME, organism-based, Macaca fascicularis. Also on record: dose 10 mg/kg, route intravenous. Conditions: male, in vivo.
The subject of data set [13] is Cynomolgus monkey. As to the kind of experiment: In vivo inhibition of NK3R in castrated cynomolgus monkey assessed as decrease in plasma luteinizing hormone level at 20 mg/kg, po measured at 480 mins. It is filed as functional, organism-based. Further details: dose 20 mg/kg. Conditions: Macaca fascicularis.
The test system of data set [14] is Rattus norvegicus. As to the kind of experiment: Hepatotoxicity in Sprague-Dawley rat assessed as effect on bilirubin level at 30 mg/kg, po bid administered for 5 days. Further details: dose 30 mg/kg, route oral. The format is toxicity, organism-based. The following applies: in vivo, 120 h.
The target of data set [15] is Neuropeptide FF receptor 1 (Homo sapiens) (UniProt Q9GZQ6). The data set can be described thus: Inhibition of NPFF1 (unknown origin) at 10 uM relative to control.
Chain of Neuropeptide FF receptor 1 (Homo sapiens) (Q9GZQ6 whole entry): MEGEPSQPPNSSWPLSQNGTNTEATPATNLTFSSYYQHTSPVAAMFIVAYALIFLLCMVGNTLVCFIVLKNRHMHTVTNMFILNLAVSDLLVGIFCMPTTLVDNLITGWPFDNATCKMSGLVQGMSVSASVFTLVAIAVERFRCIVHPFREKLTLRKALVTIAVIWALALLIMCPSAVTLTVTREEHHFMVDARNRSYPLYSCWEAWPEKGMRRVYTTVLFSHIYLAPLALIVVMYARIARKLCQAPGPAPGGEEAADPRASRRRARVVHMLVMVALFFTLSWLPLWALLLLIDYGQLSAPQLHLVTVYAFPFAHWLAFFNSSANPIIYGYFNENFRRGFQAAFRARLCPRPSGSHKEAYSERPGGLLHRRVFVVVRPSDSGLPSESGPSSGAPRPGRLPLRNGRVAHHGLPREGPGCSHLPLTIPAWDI
Data set [16] is described as follows: Tmax in castrated cynomolgus monkey at 20 mg/kg, po by LC-MS/MS analysis. The following applies: male, in vivo. Also on record: dose 20 mg/kg, route oral. It is filed as ADME, organism-based, Macaca fascicularis.
The target of data set [17] is Kappa-type opioid receptor (Homo sapiens) (UniProt P41145). The data set can be described thus: Inhibition of KOR (unknown origin) at 10 uM relative to control.
Chain of Kappa-type opioid receptor (Homo sapiens) (P41145 whole entry): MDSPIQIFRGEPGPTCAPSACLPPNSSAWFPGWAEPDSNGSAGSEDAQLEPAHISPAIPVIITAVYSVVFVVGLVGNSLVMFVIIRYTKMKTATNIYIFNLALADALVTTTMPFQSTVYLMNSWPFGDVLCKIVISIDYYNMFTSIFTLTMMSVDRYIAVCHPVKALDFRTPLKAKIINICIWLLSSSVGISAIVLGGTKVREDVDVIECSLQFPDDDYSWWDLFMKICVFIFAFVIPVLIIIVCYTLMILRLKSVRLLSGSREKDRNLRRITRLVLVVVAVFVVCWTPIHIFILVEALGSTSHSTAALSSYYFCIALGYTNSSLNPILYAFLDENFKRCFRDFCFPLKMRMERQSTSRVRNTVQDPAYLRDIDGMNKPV
Data set [18] relates to Rattus norvegicus. The data set can be described thus: Hepatotoxicity in Sprague-Dawley rat assessed as effect on ALT level at 30 mg/kg, po bid administered for 5 days. The format is toxicity, organism-based. Conditions: in vivo, 120 h. Also on record: dose 30 mg/kg, route oral.
In data set [19] the target is Voltage-gated inwardly rectifying potassium channel KCNH2 (Homo sapiens, UniProt Q12809).
Chain of Voltage-gated inwardly rectifying potassium channel KCNH2 (Q12809 whole entry): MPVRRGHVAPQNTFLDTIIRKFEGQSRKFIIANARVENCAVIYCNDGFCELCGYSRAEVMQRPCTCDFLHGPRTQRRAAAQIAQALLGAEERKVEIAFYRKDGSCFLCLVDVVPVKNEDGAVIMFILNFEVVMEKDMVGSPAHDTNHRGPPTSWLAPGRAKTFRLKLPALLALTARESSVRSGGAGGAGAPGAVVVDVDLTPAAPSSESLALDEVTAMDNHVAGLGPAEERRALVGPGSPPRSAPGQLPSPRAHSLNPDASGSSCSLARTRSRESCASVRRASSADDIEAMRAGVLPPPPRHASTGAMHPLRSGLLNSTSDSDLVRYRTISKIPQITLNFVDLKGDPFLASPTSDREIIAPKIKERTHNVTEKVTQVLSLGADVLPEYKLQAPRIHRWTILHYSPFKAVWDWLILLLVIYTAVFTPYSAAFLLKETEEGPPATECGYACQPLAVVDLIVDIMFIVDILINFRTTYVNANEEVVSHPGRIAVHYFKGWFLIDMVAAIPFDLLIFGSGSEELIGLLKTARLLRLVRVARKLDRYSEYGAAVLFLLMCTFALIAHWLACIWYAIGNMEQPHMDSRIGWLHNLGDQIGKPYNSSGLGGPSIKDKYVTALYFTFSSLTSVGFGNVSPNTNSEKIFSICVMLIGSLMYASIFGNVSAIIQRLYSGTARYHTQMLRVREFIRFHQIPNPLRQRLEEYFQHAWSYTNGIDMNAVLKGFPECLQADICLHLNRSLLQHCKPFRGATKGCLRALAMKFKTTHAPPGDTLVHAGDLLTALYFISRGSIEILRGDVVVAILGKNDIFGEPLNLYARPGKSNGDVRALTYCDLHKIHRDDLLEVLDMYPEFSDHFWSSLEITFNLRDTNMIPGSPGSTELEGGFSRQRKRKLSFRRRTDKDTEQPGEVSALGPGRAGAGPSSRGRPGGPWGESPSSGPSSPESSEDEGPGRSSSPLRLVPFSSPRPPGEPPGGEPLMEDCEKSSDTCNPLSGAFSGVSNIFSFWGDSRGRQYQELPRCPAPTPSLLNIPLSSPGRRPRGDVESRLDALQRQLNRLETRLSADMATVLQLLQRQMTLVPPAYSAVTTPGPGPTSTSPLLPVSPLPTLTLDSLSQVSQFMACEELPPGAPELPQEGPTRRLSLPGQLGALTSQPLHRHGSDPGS
Description: Inhibition of human ERG expressed in HEK293 cells after 5 mins by patch-clamp assay
In data set [20] the test system is Cynomolgus monkey. The data set can be described thus: Unbound AUC in castrated cynomolgus monkey at 20 mg/kg, po by LC-MS/MS analysis. The format is ADME, organism-based, Macaca fascicularis. Further details: dose 20 mg/kg, route oral. Conditions: in vivo.
Data set [21] in a line: Apparent permeability across apical to basolateral side in human Caco2 cells in presence of 0.1% bovine serum albumin. The following applies: Caco-2.
The test system of data set [22] is Cynomolgus monkey. The data set can be described thus: Unbound Cmax in castrated cynomolgus monkey at 20 mg/kg, po by LC-MS/MS analysis. It is filed as ADME, organism-based, Macaca fascicularis. Also on record: dose 20 mg/kg, route oral. Conditions: in vivo.
Data set [23] is described as follows: Volume of distribution at steady state in castrated cynomolgus monkey at 10 mg/kg, iv by LC-MS/MS analysis. Conditions: male, in vivo.
Data set [24] deals with Rattus norvegicus. As to the kind of experiment: Hepatotoxicity in Sprague-Dawley rat assessed as effect on AST level at 30 mg/kg, po bid administered for 5 days. It is filed as toxicity, organism-based. Further details: dose 30 mg/kg, route oral. Conditions: in vivo, 120 h.

Description for Substance-P receptor: Displacement of [3H]-Substance P from human NK1R after 90 mins by scintillation counting analysis

What is called half-life is the time in which the quantity being followed falls by half. The term pKi denotes the Ki on a negative log10 scale, so that one unit is a factor of ten. In general, pIC50 refers to the negative decadic logarithm of the IC50, by convention in mol/L. A word on the inhibition in vivo: it is how much of the control response was suppressed. Broadly, the bioavailability is the share of a dose that reaches the circulation, judged against a reference dose that is usually intravenous. The molecule `C[C@@H]1c2nnc(-c3csc(-c4ccc(F)cc4F)n3)n2CCN1C(=O)c1ccc(-c2cccs2)cc1` gave a half-life in “in vivo [1]” of 321 min. The figures for the pKi on Substance-K receptor, at Substance-P receptor and at Neuromedin-K receptor [4] were 6.10, 5.90 and 8.70, respectively. The pIC50 at Neuromedin-K receptor [2] is 7.70. In addition, the inhibition in vivo at 10 mg/kg in the data set on Rattus norvegicus [3] amounted to 50%. This molecule also came in with a bioavailability in “in vivo [5]” of 17%.
By Papp B→A is commonly meant how fast a substance crosses the layer from the basolateral side. In general, inhibition refers to the relative decrease from the control value, in per cent. The clearance is a measure of how efficiently the substance is removed, as volume per time. Usually Tmax stands for the time from dosing to the highest level. For orientation: Papp A→B means how fast a substance crosses the layer from the apical side. For orientation: Vd means the apparent volume that relates the amount in the body to the concentration in plasma or blood. On to `Cc1nc(-c2nnc3n2CCN(C(=O)c2ccc(-c4cccs4)cc2)[C@@H]3C)cs1`, for which the fAUC with Cynomolgus monkey [6] was 1055 nM·h; with Cynomolgus monkey [11], 64.6 nM·h; with Cynomolgus monkey [20] it was 526 nM·h. The fCmax is reported as 17.9 nM with Cynomolgus monkey [7] and 237 nM in the data set with Cynomolgus monkey [22]. The apparent permeability from basolateral to apical (Papp B→A) in data set [8] worked out at 52.9 ×10⁻⁶ cm/s. The Drug uptake result in the data set on Rattus norvegicus [9] is “Not Active”. In addition, the inhibition entry in the data set on Cynomolgus monkey [10] was “Active”. This molecule also displayed a clearance in [12] of 16.5 mL/min/kg. In addition, in the data set on Cynomolgus monkey [13], the inhibition entry was “inactive”. Also, the Activity entry in the data set with Rattus norvegicus [14], with Rattus norvegicus [18] and in the data set with Rattus norvegicus [24] was “Non-toxic” each time. The inhibition in data set [15] worked out at 18%; in data set [17] it was 25%. In addition, in data set [16], the Tmax is 1 h. In data set [19], this molecule gave a pIC50 of 4.62. Moreover, the apparent permeability from apical to basolateral (Papp A→B) in [21] amounted to 48.2 ×10⁻⁶ cm/s. In addition, the Vd in data set [23] was determined as 1.52 L/kg.

The values are drawn from ChEMBL document CHEMBL3421625, “Discovery and optimization of novel antagonists to the human neurokinin-3 receptor for the treatment of sex-hormone disorders (Part I)” (J Med Chem, 2015).
